Test results reported in article PMC8819907 (Journal of Experimental & Clinical Cancer Research : CR, 2022).
Where two headings read alike, the source gives them in different places.

Columns and labels:
[1] = test system: patients with advanced melanoma; conditions: cited from earlier work
[2] = test system: CYP enzymes; BCRP, MRP2, OATP1B1, OATP1B3, OATP2B1, OCT1, MATE1, P-gp, BSEP; conditions: cited from earlier work
[3] = trametinib and its metabolites; cited from earlier work
[4] = test system: RAF-mediated MEK1 activation; design: method as in ref 19 (a number printed in a supplementary file, which may have a reference list of its own: not looked up in the article's list); conditions: read-out: IC50, inhibition of RAF-mediated MEK1 activation; cited from earlier work
advanced solid tumors = test: Tumor response (RECIST 1.1) and PFS (Kaplan Meier); type: in vivo, human;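 also: patients were grouped by hepatic function into four groups, and PFS differences among these groups were tested with a log rank test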
[5] = test system: PC3, BxPC3, and BT474 xenograft lines; conditions: no tumor regressions; cited from earlier work
A549 xenograft = test system: A549 xenograft; design: method as in ref 17 (a number printed in a supplementary file, which may have a reference list of its own: not looked up in the article's list); conditions: cited from earlier work
[6] = cited from earlier work
[7] = test system: acute myeloid leukemia or myelodysplastic syndrome; conditions: cited from earlier work
HCT-116 xenograft = test system: HCT-116 xenograft; design: method as in ref 17 (a number printed in a supplementary file, which may have a reference list of its own: not looked up in the article's list); conditions: cited from earlier work
[8] = test system: untreated pancreatic cancer; design: method as in ref 25 (a number printed in a supplementary file, which may have a reference list of its own: not looked up in the article's list); conditions: gemcitabine plus trametinib 2 mg QD; cited from earlier work
[9] = test system: patients in clinical trials of trametinib; conditions: cited from earlier work
pERK, Ki67, and p27 = test system: pERK, Ki67, and p27; design: method as in ref 19 (a number printed in a supplementary file, which may have a reference list of its own: not looked up in the article's list); conditions: 2 mg QD, cited from earlier work
clinical = conditions: human, 2 mg
[10] = cited from earlier work; remark: listed apart in the source
[11] = 13 patients with KRAS or NRAS mutations
[12] = 2 mg monotherapy, 96 total patients

## CC(=O)Nc1cccc(-n2c(=O)n(C3CC3)c(=O)c3c(Nc4ccc(I)cc4F)n(C)c(=O)c(C)c32)c1 [Trametinib, equimolecular combination of acetamide, N-[3-[3-cyclopropyl-5-[(2-fluoro-4-iodophenyl)amino]-3,4,6,7-tetrahydro6,8-dimethyl-2,4,7-trioxopyrido[4,3-d]pyrimidin-1(2H)-yl]phenyl] with 1,1’-sulfinylbis[methane]]
[1]; 10 of 14 patients
  Cardiomyopathy resolved: 71%
[1]; All Grades
  Pruritis: 10%
  Stomatitis: 15%
[1]; Grades 3 and 4
  Pruritis: 2%
  Stomatitis: 2%
[1]; in vivo
  Dose reduction required for skin toxicities: 12%
  Severe skin toxicity: 12%
  overall incidence of skin toxicity: 87%
  permanent discontinuation for skin toxicities: 1%
[1]; range: 1 to 221 days
  median time to onset of skin toxicity: 15 days
[1]; range: 1 to 282 days
  median time to resolution of skin toxicity: 48 days
[2]
  permeability: high permeability
[2]; in vitro
  substrate of CYP enzymes: not a substrate
  substrate of human BCRP, MRP2, OATP1B1, OATP1B3, OATP2B1, OCT1 or MATE1 transporters: not a substrate
[2]; not expected to be clinically relevant
  substrate for P-gp and BSEP: substrate
[3]
  excreted in the feces: ≥ 81%
  excreted in urine: ≤ 19%
[4]
  IC50: 0.6 nM
Advanced solid tumors; Mild
  duration of SD (range): 3.0-6.6 months
  median duration of SD: 4.8 months
Advanced solid tumors; Mild DL1 2 mg
  Best Response: Partial Response: 0 (0) n (%)
  Best Response: Progressive Disease: 4 (66.7) n (%)
  Best Response: Stable Disease: 2 (33.3) n (%)
Advanced solid tumors; Mild DL1 2 mg, listed as trametinib
  Best Response: Stable Disease: 2 (33.3%) n (%)
Advanced solid tumors; Mild group
  median PFS: 1.74 months
Advanced solid tumors; Mod (1.5 mg)
  duration of SD (range): 3.0-3.5 months
  median duration of SD: 3.5 months
Advanced solid tumors; Mod (2 mg)
  duration of SD (range): 2.3-2.4 months
  median duration of SD: 2.4 months
Advanced solid tumors; Mod DL1 1.5 mg
  Best Response: Partial Response: 0 (0) n (%)
  Best Response: Progressive Disease: 1 (25.0) n (%)
  Best Response: Stable Disease: 3 (75.0) n (%)
Advanced solid tumors; Mod DL1 1.5 mg, listed as trametinib
  Best Response: Stable Disease: 3 (75%) n (%)
Advanced solid tumors; Mod DL+1 2 mg
  Best Response: Partial Response: 0 (0) n (%)
  Best Response: Progressive Disease: 1 (33.3) n (%)
  Best Response: Stable Disease: 2 (66.7) n (%)
Advanced solid tumors; Mod DL+1 2 mg, listed as trametinib
  Best Response: Stable Disease: 2 (66%) n (%)
Advanced solid tumors; Mod group
  median PFS: 3.45 months
Advanced solid tumors; Norm
  duration of SD (range): 1.9-12.5 months
  median duration of SD: 3.8 months
Advanced solid tumors; Norm 2 mg
  Best Response: Partial Response: 2 (15.4) n (%)
  Best Response: Progressive Disease: 4 (30.8) n (%)
  Best Response: Stable Disease: 7 (53.8) n (%)
Advanced solid tumors; Norm 2 mg, listed as trametinib
  Best Response: Stable Disease: 7 (53.8%) n (%)
Advanced solid tumors; Norm group
  median PFS: 3.62 months
Advanced solid tumors; Sev (1 mg)
  duration of SD (range): 2.7-4.6 months
  median duration of SD: 3.4 months
Advanced solid tumors; Sev DL1 1 mg
  Best Response: Partial Response: 0 (0) n (%)
  Best Response: Progressive Disease: 1 (25.0) n (%)
  Best Response: Stable Disease: 3 (75.0) n (%)
Advanced solid tumors; Sev DL1 1 mg, listed as trametinib
  Best Response: Stable Disease: 3 (75%) n (%)
Advanced solid tumors; Sev DL+1 1.5 mg
  Best Response: Partial Response: 0 (0) n (%)
  Best Response: Progressive Disease: 1 (100%) n (%)
  Best Response: Stable Disease: 0 (0) n (%)
Advanced solid tumors; Sev DL+1 1.5 mg, listed as trametinib
  Best Response: Stable Disease: 0 (0%) n (%)
Advanced solid tumors; Sev group
  median PFS: 2.11 months
Advanced solid tumors; Total
  Best Response: Partial Response: 2
  Best Response: Progressive Disease: 12
  Best Response: Stable Disease: 17
[5]
  TGI: 44-46%
A549 xenograft
  TGI: 75%
[6]; after single dose administration
  terminal half-life: 127 h
[6]; following an IV microdose
  volume of distribution (Vd): 1060 L
[6]; human, in vivo, iv
  plasma IV clearance: 3.21 L/h
  plasma IV clearance as share of liver blood flow: approximately 1%
[6]; patients with normal liver function
  half-life: approximately 4 days
[6]; single 2 mg tablet relative to co-administered IV microdose
  absolute oral bioavailability: 72%
[6]; single dose, vs fasted
  decrease in AUC(0-∞) with a high-fat, high-calorie meal: 10%
  decrease in Cmax with a high-fat, high-calorie meal: 70%
[7]; [11]
  best response CRs: 3
  best response PD: 1
  best response SD: 7
[7]; 26 patients with wild-type RAS or unknown mutation
  PRs: 2
[7]; AML or MDS, 1-2 mg QD
  patients withdrew due to an AE: 23%
HCT-116 xenograft
  TGI: 83%
[8]
  Median OS: 8.4 months
  ORR: 22%
  median PFS: 16 weeks
  median duration of responses: 23.9 weeks
[9]; 2 mg monotherapy, five studies
  grade 4 rash AE: four patients
[9]; [12]
  LFT changes grade 3 events: 26
  LFT changes grade 4 events: 6 patients
[9]; 2 mg monotherapy
  grade 1 or 2 pneumonitis: three subjects
  grade 3 diarrhea: 17 patients
  grade 3 pneumonitis: six
  grade 3 visual disorders: six patients
  grade 4 diarrhea: none
  grade 4 visual disorder: one patient
[9]; entire trametinib program as of 23 June 2013, monotherapy or combination
  cases of RPED: 14 cases
[9]; integrated safety population, 2 mg once daily, five studies
  cases of RPED: five cases
pERK, Ki67, and p27; BRAF or NRAS mutation-positive metastatic melanoma
  median inhibition of pERK: 62%
pERK, Ki67, and p27
  median increase in p27: 175%
  median inhibition of Ki67: 83%
clinical; in vivo
  Cmax: 27.6 ng/mL
clinical; plasma, oral, AUC0 − 24, Geo mean (%CV), Mild (n = 6), dose normalized to 2 mg
  AUC(0-t): 352 ng·h/mL
clinical; plasma, oral, AUC0 − 24, Geo mean (%CV), Mod (n = 3), dose normalized to 2 mg
  AUC(0-t): 311 ng·h/mL
clinical; plasma, oral, AUC0 − 24, Geo mean (%CV), Sev (n = 3), dose normalized to 2 mg
  AUC(0-t): 229 ng·h/mL
clinical; plasma, oral, AUC0 − 24, Mean (±SD), Mild (n = 6), dose normalized to 2 mg
  AUC(0-t): 388 ng·h/mL
clinical; plasma, oral, AUC0 − 24, Mean (±SD), Mod (n = 3), dose normalized to 2 mg
  AUC(0-t): 312 ng·h/mL
clinical; plasma, oral, AUC0 − 24, Mean (±SD), Norm (n = 10), dose normalized to 2 mg
  AUC(0-t): 469 ng·h/mL
clinical; plasma, oral, AUC0 − 24, Mean (±SD), Sev (n = 3), dose normalized to 2 mg
  AUC(0-t): 240 ng·h/mL
clinical; plasma, oral, Cmax, Geo mean (%CV), Mild (n = 6), dose normalized to 2 mg
  Cmax: 26.2 ng/mL
clinical; plasma, oral, Cmax, Geo mean (%CV), Mod (n = 3), dose normalized to 2 mg
  Cmax: 16.8 ng/mL
clinical; plasma, oral, Cmax, Geo mean (%CV), Norm (n = 10), dose normalized to 2 mg
  Cmax: 26.2 ng/mL
clinical; plasma, oral, Cmax, Geo mean (%CV), Sev (n = 3), dose normalized to 2 mg
  Cmax: 15.3 ng/mL
clinical; plasma, oral, Cmax, Mean (±SD), Mild (n = 6), dose normalized to 2 mg
  Cmax: 29.5 ng/mL
clinical; plasma, oral, Cmax, Mean (±SD), Mod (n = 3), dose normalized to 2 mg
  Cmax: 16.9 ng/mL
[10]; 2 mg QD on Day 15
  Cmax: 23 ng/mL
  mean AUC0-24: 376 ng·h/mL
[10]; across all dosing regimens
  Between-subject variability in exposure, AUC0-24: 20-41%
  Between-subject variability in exposure, Cmax: 27-50%
[10]; in vivo
  effective t1/2: approximately 4.5 days
  steady state reached by: ~15 days
